For assay [1], the target named is T1, human full length PIK3KA H1047R mutant (p110α/p85α complex) (Homo sapiens, UniProt P42336, H1047R).
T1 construct: Recombinant, catalytically active human full length PIK3KA Wild-type and H1047R mutant were purchased; 6xHis (N); purchased EMD Millipore Sigma 14-792M
In words: PI3K-Alpha Kinase (PIK3CA) biochemical activity, H1047R mutant (ADP-Glo). The note with it: 20 uM ATP. From the text:
(§1) PI3K-Alpha Kinase (PIK3CA) Activity, Wild-Type and H1047R Mutant and Determining IC50 Values for Inhibitors
(§2) Recombinant, catalytically active human full length PIK3KA Wild-type and H1047R mutant were purchased as 1:1 complex of N-terminal 6×his tagged p110α (catalytic) and untagged p85α, (regulatory subunit) from EMD Millipore Sigma (cat. no. 14-602M and 14-792M, respectively). PIP2diC8 (Avanti Polar Lipids Inc., cat. no. 850185) or Soy PI (Avanti Polar Lipids Inc., cat. No. 840044P) was used as lipid substrate. PIP2diC8 or PI lyophilized powder was dissolved in milliQ water to a concentration of 1 mM just before use. 10 mM stock compounds in DMSO were serially diluted 1:3 to generate a 10-point curve and plated using an acoustic liquid handler system (Echo 550 series instrument, Labcyte). A 10× intermediate compound plate (200 uM starting compound concentration and 10% DMSO) was prepared before starting the reaction. A typical reaction mixture (50 uL) comprised 40 mM HEPES buffer, pH 7.4, 25 mM MgCl2, 0.01% v/v triton-X-100, 1% v/v DMSO, 20 mM NaCl, 1-5 nM WT or H1047R PI3K protein, 20 uM ATP, and 50 uM PIP2diC8 or Soy PI. 1% DMSO buffer alone without test compound was employed as MAX control (full activity in the absence of any inhibitor), and no enzyme control was used to determine the level of background Adenosine 5′-diphosphate (ADP) (MIN control). First, Wild-type (WT) and H1047R mutant protein in kinase buffer with all components except ATP were incubated with or without compound at 27° C. for 1 h. After the pre-incubation, the reaction was initiated by the addition of […] (20 uM final concentration). The reaction was allowed to proceed until about 10% conversion of ATP (2 uM ADP) at 27° C. After that time, 5 uL of reaction was mixed with 5 uL of ADP-Kinase Glo Reagent (ADP-Glo Kinase assay kit, Promega cat. no. V9102) supplemented with MgCl2 10 mM to stop the reaction and deplete the remaining ATP for 40 min at room temperature. Then, 10 uL of Kinase Detection Reagent (ADP-Glo Kinase assay kit, Promega cat. no. V9102) was added to simultaneously convert ADP to ATP and allow the newly synthesized ATP to be measured using a luciferase/luciferin reaction. After 30 min at room temperature the light generated was measured using a luminometer (EnVision plate reader, Perkin Elmer). Process data through Genedata-Screener tool. Relative IC50 values are determined using luminescence units by calculating percent inhibition with respect to on-plate “MIN” and “MAX” controls. Data was analyzed using a 4-parameter nonlinear logistic equation (four-parameter logistic concentration-response curve):
(§3) Y=bot+[(top−bot)/1+(x/IC50)slope]
(§4) where Y=% inhibition, X=concentration yielding y % inhibition, Bottom=minimum value of y attained by curve, Top=maximum value of y attained by curve and Slope=steepness of curve at IC50.
(§5) % Inh=[(median Max−x/median Max−median Min)]·100
(§6) IC50: concentration of compound that reduces a given response (ligand binding, enzyme response) by 50%. IC50 relative: concentration giving half the compound's maximum response.
(§7) For IC50 values shown in Table A, “A” means IC50<0.5 μM; “B” means IC50 ranging between 0.5 μM and 1.0 μM; “C” means IC50 ranging between 1 μM and 5 μM; “D” means IC50 ranging between 5 μM and 10 μM; “E” means IC50>10 μM.
In general terms: ADP-Glo turns the ADP formed in a reaction into a luminescent signal.

The target of assay [2] is T2, human full length PIK3KA Wild-type (p110α/p85α complex) (Homo sapiens, UniProt P42336).
T2 construct: Recombinant, catalytically active human full length PIK3KA Wild-type and H1047R mutant were purchased; 6xHis (N); purchased EMD Millipore Sigma 14-602M
In words: PI3K-Alpha Kinase (PIK3CA) biochemical activity, wild-type (ADP-Glo). The note with it: 20 uM ATP.
Text: as §1, §2, §3, §4, §5, §6, §7

Among the data in US20230014445A1, “ALLOSTERIC CHROMENONE INHIBITORS OF PHOSPHOINOSITIDE 3-KINASE (PI3K) FOR THE TREATMENT OF DISEASE” (Petra Pharma Corporation, priority 2021, published 2023) are IC50 values, retold here.

pIC50: −log10 of the molar value. Bounds are passed on as bounds.

T1 sequence (P42336 whole entry H1047R): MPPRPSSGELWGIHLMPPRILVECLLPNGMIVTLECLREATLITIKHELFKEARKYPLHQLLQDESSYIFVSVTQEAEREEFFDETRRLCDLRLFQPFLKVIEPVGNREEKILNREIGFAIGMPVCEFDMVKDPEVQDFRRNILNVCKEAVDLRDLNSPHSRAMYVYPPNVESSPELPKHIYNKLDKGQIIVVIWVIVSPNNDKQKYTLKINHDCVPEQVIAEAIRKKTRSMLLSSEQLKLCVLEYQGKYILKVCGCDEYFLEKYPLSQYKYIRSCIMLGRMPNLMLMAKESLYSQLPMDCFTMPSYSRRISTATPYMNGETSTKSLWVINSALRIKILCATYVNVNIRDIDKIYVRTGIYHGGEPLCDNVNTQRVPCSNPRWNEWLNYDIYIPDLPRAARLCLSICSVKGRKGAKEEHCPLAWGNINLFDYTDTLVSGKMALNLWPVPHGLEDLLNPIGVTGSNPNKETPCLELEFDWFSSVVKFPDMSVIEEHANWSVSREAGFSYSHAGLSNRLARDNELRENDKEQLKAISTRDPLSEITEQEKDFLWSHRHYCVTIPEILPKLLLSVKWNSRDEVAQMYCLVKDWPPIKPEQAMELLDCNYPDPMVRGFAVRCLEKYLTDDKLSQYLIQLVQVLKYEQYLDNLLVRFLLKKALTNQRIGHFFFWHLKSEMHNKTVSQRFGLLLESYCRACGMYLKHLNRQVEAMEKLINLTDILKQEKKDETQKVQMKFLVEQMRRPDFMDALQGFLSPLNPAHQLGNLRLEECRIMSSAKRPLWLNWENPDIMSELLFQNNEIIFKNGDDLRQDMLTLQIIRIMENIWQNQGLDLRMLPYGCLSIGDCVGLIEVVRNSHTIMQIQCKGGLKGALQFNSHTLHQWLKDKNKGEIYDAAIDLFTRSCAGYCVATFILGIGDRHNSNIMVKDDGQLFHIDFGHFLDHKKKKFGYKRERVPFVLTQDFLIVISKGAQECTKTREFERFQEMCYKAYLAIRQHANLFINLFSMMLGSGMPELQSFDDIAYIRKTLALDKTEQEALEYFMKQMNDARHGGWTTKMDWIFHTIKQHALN
T1 sequence (P27986 whole entry partner): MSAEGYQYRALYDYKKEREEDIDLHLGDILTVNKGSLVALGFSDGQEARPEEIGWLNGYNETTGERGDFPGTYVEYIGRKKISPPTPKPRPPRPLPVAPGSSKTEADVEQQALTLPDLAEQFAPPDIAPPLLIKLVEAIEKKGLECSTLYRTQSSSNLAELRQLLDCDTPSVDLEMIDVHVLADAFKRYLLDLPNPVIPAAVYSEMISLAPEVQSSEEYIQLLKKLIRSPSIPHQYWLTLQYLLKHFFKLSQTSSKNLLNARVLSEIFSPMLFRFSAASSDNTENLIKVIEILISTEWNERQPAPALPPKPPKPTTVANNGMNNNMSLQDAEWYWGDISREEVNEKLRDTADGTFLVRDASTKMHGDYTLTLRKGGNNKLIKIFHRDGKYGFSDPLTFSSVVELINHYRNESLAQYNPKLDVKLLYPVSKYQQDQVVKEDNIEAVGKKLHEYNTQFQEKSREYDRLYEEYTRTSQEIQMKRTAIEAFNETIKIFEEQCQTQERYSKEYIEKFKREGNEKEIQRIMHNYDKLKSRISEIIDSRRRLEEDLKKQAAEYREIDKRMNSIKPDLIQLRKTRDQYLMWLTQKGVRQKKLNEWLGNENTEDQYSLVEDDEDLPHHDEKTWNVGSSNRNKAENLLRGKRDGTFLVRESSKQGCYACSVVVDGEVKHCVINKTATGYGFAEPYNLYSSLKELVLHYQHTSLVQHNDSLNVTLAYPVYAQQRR

Regarding `Cc1cc(C(C)Nc2ccccc2C(=O)O)c2oc(-c3cnn(-c4ccc(Cl)cc4)c3)cc(=O)c2c1` (single isomer, unassigned) [Example 106, 2-[1-2-[1-(4-Chiorophenyl)pyrazol-4-yl]-6-methyl-4-oxo-chromen-8-yl]ethylamino]benzoic acid, Isomer 2,2,2,2-trifluoroacetic acid], the pIC50 – broadly, the negative decadic logarithm of the IC50, by convention in mol/L – in assay [1] (Soy PI lipid substrate) was over 6.30; in assay [2] (Soy PI lipid substrate), 5.30 to 6.00.

For `Cc1cc(C(C)Nc2ccccc2C(=O)O)c2oc(-c3cnn(-c4ccccc4C#N)c3)cc(=O)c2c1` (single isomer, unassigned) [Example 107], the figures for the pIC50 in assay [1] (Soy PI lipid substrate) and in assay [2] (Soy PI lipid substrate) were over 6.30 and under 5.00, respectively.

Consider `Cc1cc(C(C)Nc2ccccc2C(=O)O)c2oc(-c3cnn(-c4ccccn4)c3)cc(=O)c2c1` (single isomer, unassigned) [Example 108, 2-[1-[6-Methyl-4-oxo-2-[1-(2-pyridyl)pyrazol-4-yl]chromen-8-yl]ethylamino]benzoic acid, Isomer 2,2,2,2-trifluoroacetic acid], for which the pIC50 in assay [1] (Soy PI lipid substrate) was 6.00 to 6.30; in assay [2] (Soy PI lipid substrate) it was 5.30 to 6.00.

Take `Cc1cc(C(C)Nc2ccccc2C(=O)O)c2oc(-c3cn(-c4ccc(C#N)cc4)nc3C)cc(=O)c2c1` (single isomer, unassigned) [Example 109, 2-[1-[2-[1-(4-Cyanophenyl)-3-methyl-pyrazol-4-yl]-6-methyl-4-oxo-chromen-8-yl]ethylamino]benzoic acid, Isomer 2,2,2,2-trifluoroacetic acid]: the pIC50 is 6.00 to 6.30 in assay [1] (Soy PI lipid substrate) and 5.00 to 5.30 in assay [2] (Soy PI lipid substrate).

Turning to `Cc1cc(C(C)Nc2ccccc2C(=O)O)c2oc(-c3cnccn3)cc(=O)c2c1` (single isomer, unassigned; isomer 1) [Example 15, 2-[1-(6-Methyl-4-oxo-2-pyrazin-2-yl-chromen-8-yl)ethylamino]benzoic acid, Isomer 1], the negative logarithm of the IC50 (pIC50) in assay [1] (PIP2diC8 lipid substrate) was over 6.30; in assay [2] (PIP2diC8 lipid substrate) it was 5.30 to 6.00.

Take `Cc1cc(C(C)Nc2ccccc2C(=O)O)c2oc(-c3ccccn3)cc(=O)c2c1` (single isomer, unassigned; isomer 1) [Example 17, 2-[1-[6-Methyl-4-oxo-2-(2-pyridyl)chromen-8-yl]ethylamino]benzoic acid, Isomer 1]: the negative logarithm of the IC50 (pIC50) was over 6.30 in assay [1] (Soy PI lipid substrate) and 5.30 to 6.00 in assay [2] (Soy PI lipid substrate).

With `Cc1cc(C(C)Nc2ccc(Cl)nc2C(=O)O)c2oc(-c3ccccn3)cc(=O)c2c1` (single isomer, unassigned; isomer 1) [Example 27, 6-Chloro-3-[1-[6-methyl-4-oxo-2-(2-pyridyl)chromen-8-yl]ethylamino]pyridine-2-carboxylic acid, Isomer 1], the results for the pIC50 in assay [1] (Soy PI lipid substrate) and in assay [2] (Soy PI lipid substrate) were over 6.30 and 5.30 to 6.00, respectively.

For `Cc1cc(C(C)Nc2ccc(Cl)nc2C(=O)O)c2oc(-c3cnccn3)cc(=O)c2c1` (single isomer, unassigned; isomer 1) [Example 28, 6-Chloro-3-[1-(6-methyl-4-oxo-2-pyrazin-2-yl-chromen-8-yl)ethylamino]pyridine-2-carboxylic acid, Isomer 1], the negative-log IC50 (pIC50) is over 6.30 in assay [1] (Soy PI lipid substrate) and 5.30 to 6.00 in assay [2] (Soy PI lipid substrate).

In the case of `Cc1cc(C(C)Nc2ccccc2C(=O)O)c2oc(-c3cnc(C)nc3)cc(=O)c2c1` (single isomer, unassigned; isomer 1) [Example 32, 2-[1-[6-Methyl-2-(2-methylpyrimidin-5-yl)-4-oxo-chromen-8-yl]ethylamino]benzoic acid, Isomer 1], the pIC50 in assay [1] (PIP2diC8 lipid substrate) was over 6.30; in assay [2] (PIP2diC8 lipid substrate), 5.00 to 5.30.

`Cc1cc(C(C)Nc2ccccc2C(=O)O)c2oc(-c3ncccn3)c(C)c(=O)c2c1` (single isomer, unassigned; isomer 1) [Example 34, 2-[1-(3,6-Dimethyl-4-oxo-2-pyrimidin-2-yl-chromen-8-yl)ethylamino]benzoic acid, Isomer 1]: the pIC50 in assay [1] (Soy PI lipid substrate) is over 6.30; in assay [2] (Soy PI lipid substrate), 5.30 to 6.00.

For the compound `CC(Nc1ccc(Cl)nc1C(=O)O)c1cc(C(F)(F)F)cc2c(=O)cc(-c3ccccn3)oc12` (single isomer, unassigned; isomer 1) [Example 62, 6-Chloro-3-[1-[4-oxo-2-(2-pyridyl)-6-(trifluoromethyl)chromen-8-yl]ethylamino]pyridine-2-carboxylic acid, Isomer 1], the pIC50 in assay [1] (Soy PI lipid substrate) is over 6.30; in assay [2] (Soy PI lipid substrate), 5.00 to 5.30.

As to `Cc1cc(C(C)Nc2ccc(Cl)c(F)c2C(=O)O)c2oc(-c3ccccn3)cc(=O)c2c1` (single isomer, unassigned; isomer 1) [Example 78, 3-Chloro-2-fluoro-6-[1-[6-methyl-4-oxo-2-(2-pyridyl)chromen-8-yl]ethylamino]benzoic acid, Isomer 1], the pIC50 is over 6.30 in assay [1] (Soy PI lipid substrate) and 5.00 to 5.30 in assay [2] (Soy PI lipid substrate).

Take `CC(Nc1ccc(Cl)nc1C(=O)O)c1cc(C(F)(F)F)cc2c(=O)cc(-c3cnn(-c4ccc(C#N)cc4)c3)oc12` (single isomer, unassigned; isomer 1) [Example 96, 6-Chloro-3-[1-[2-[1-(4-cyanophenyl)pyrazol-4-yl]-4-oxo-6-(trifluoromethyl)chromen-8-yl]ethylamino]pyridine-2-carboxylic acid, Isomer 1]: the negative logarithm of the IC50 (pIC50) was over 6.30 in assay [1] (Soy PI lipid substrate) and 5.30 to 6.00 in assay [2] (Soy PI lipid substrate).

Regarding `CC(Nc1ccccc1C(=O)O)c1cc(C(F)(F)F)cc2c(=O)cc(-c3cnn(-c4ccc(C#N)cc4)c3)oc12` (single isomer, unassigned; isomer 1) [Example 99, 2-[1-2-[1-(4-Cyanophenyl)pyrazol-4-yl]-4-oxo-6-(trifluoromethyl)chromen-8-yl]ethylamino]benzoic acid, Isomer 1], the pIC50 in assay [1] (Soy PI lipid substrate) was 6.00 to 6.30; in assay [2] (Soy PI lipid substrate), 5.30 to 6.00.

For the compound `Cc1cc(C(C)Nc2ccccc2C(=O)O)c2oc(-c3ncccn3)cc(=O)c2c1` (single isomer, unassigned; isomer 2) [Example 3, 2-[1-(6-Methyl-4-oxo-2-pyrimidin-2-yl-chromen-8-yl)ethylamino]benzoic acid, Isomer 2], the pIC50 is over 6.30 in assay [1] (Soy PI lipid substrate) and under 5.00 in assay [2] (Soy PI lipid substrate).

Regarding `Cc1cc(C(C)Nc2ccccc2C(=O)O)c2oc(-c3cccnc3)cc(=O)c2c1` (single isomer, unassigned; isomer 2) [Example 14, 2-[1-[6-Methyl-4-oxo-2-(3-pyridyl)chromen-8-yl]ethylamino]benzoic acid, Isomer 2], the pIC50 in assay [1] (Soy PI lipid substrate) was over 6.30; in assay [2] (Soy PI lipid substrate) it was 5.30 to 6.00.

Take `Cc1cc(C(C)Nc2ccccc2C(=O)O)c2oc(-c3cnccn3)cc(=O)c2c1` (single isomer, unassigned; isomer 2) [Example 16, 2-[1-(6-Methyl-4-oxo-2-pyrazin-2-yl-chromen-8-yl)ethylamino]benzoic acid, Isomer 2]: the pIC50 in assay [1] (PIP2diC8 lipid substrate) and in assay [2] (PIP2diC8 lipid substrate) was under 5.00 in each case.

Turning to `Cc1cc(C(C)Nc2ccccc2C(=O)O)c2oc(-c3ccccn3)cc(=O)c2c1` (single isomer, unassigned; isomer 2) [Example 18, 2-[1-[6-Methyl-4-oxo-2-(2-pyridyl)chromen-8-yl]ethylamino]benzoic acid, Isomer 2], the pIC50 in assay [1] (PIP2diC8 lipid substrate) and in assay [2] (PIP2diC8 lipid substrate) was under 5.00 in each case.

With `COc1ccc(-c2cc(=O)c3cc(C)cc(C(C)Nc4ccccc4C(=O)O)c3o2)cn1` (single isomer, unassigned; isomer 2) [Example 20, 2-[1-[2-(6-Methoxy-3-pyridyl)-6-methyl-4-oxo-chromen-8-yl]ethylamino]benzoic acid, Isomer 2], the negative logarithm of the IC50 (pIC50) is over 6.30 in assay [1] (Soy PI lipid substrate) and 5.30 to 6.00 in assay [2] (Soy PI lipid substrate).
